ChEMBL document CHEMBL3872219, “Computational and synthetic approaches for developing Lavendustin B derivatives as allosteric inhibitors of HIV-1 integrase” (Eur J Med Chem, 2016)
Activity calls are given as the source filed them. The rule behind the calls is not given here.

Key:
[1] = Inhibition of HIV1 His-tagged integrase/His-tagged LEDGF/p75 (unknown origin) interaction expressed in Escherichia coli BL21(DE3) preincubated for 30 mins with viral integrase followed by LEDGF/p75 addition measured after 30 mins by HTRF assay
[2] = Inhibition of His-tagged LEDGF/p75 (unknown origin) dependent FLAG or His-tagged HIV1 integrase activity expressed in Escherichia coli BL21(DE3) using 32-mer blunt-ended U5 viral donor DNA and pBR322 target DNA preincubated for 5 mins followed by LEDGF/p75 addition measured after 90 mins by agarose gel electrophoresis
[3] = Inhibition of FLAG or His-tagged HIV1 integrase 3' processing activity expressed in Escherichia coli BL21(DE3) using [32P]-labeled blunt ended 21-mer or recessed ended 19-mer double stranded U5 DNA as substrate preincubated for 30 mins followed by substrate addition measured after 1 hr by polyacrylamide gel electrophoresis; design: species or system Human immunodeficiency virus 1
[4] = test system: Human immunodeficiency virus 1; test: Antiviral activity against VSV-g pseudotyped HIV1 infected in HEK293T cells incubated for 2 hrs prior to viral infection followed by compound wash out at 2 hrs post infection and subsequent compound readdition measured after 48 hrs by luciferase reporter gene assay; format: functional, cell-based; conditions: HEK-293T
[5] = Cytotoxicity against HEK293T cells assessed as reduction in cell viability; format: toxicity, cell-based; conditions: human, hek-293t

| Compound | IC50 [1] [µM] | IC50 [2] [µM] | IC50 [3] [µM] | Activity [4] | Activity [5] |
| --- | --- | --- | --- | --- | --- |
| O=C(O)c1cc(N(Cc2cccc(F)c2)Cc2cccc(F)c2)ccc1O | 20.8 | 18.5 | 68.6 |  |  |
| O=C(O)c1cc(N(Cc2cccc(Cl)c2)Cc2cccc(Cl)c2)ccc1O | 19.5 | 13.5 | > 70 |  |  |
| O=C(O)c1cc(N(Cc2ccccc2F)Cc2ccccc2F)ccc1O | 17.8 | 9 | 63.1 |  |  |
| Cc1ccccc1CN(Cc1ccccc1C)c1ccc(O)c(C(=O)O)c1 | 27.6 | 14.7 | > 70 |  |  |
| O=C(O)c1cc(N(Cc2ccccc2Cl)Cc2ccccc2Cl)ccc1O | 3.28 | 3.78 | 25.6 | Active | Toxic |
| O=C(O)c1cc(N(Cc2ccccc2)Cc2ccccc2)ccc1O | 8.75 | 7.93 | 70 |  |  |
